Tests used:
Assay type in all cases: in vivo
Poa trivialis = assay: Outdoor trial, post-emergence herbicidal action against Poa trivialis
Experimental: (§1) The herbicidal efficacy of the active compounds or active compound mixtures was scored visually by comparing the treated pots (soil) with untreated controls. The damage and development of all above-ground plant parts was recorded. Scoring was done on a percentage scale (100% action=all plants dead or not emerged; 50% action=50% of the plants and green plant parts dead or not emerged; 0% action=no discernible action=like control plot). The score figures of in any case 4 repetitions (pots) were averaged.
(§2) Seeds or rhizome pieces of monocotyledonous and dicotyledonous weeds are placed in sandy loam in pots, covered with soil and grown in the greenhouse under good growth conditions (temperature, atmospheric humidity, water supply). Three weeks after sowing, the test plants are treated in the three-leaf stage with the compositions according to the invention. The compositions according to the invention, formulated as wettable powders or emulsion concentrates, are sprayed onto the green plant parts in various dosages using an application rate of 300 to 800 l of water/ha (converted). After the test plants have remained in the greenhouse under optimum growth conditions for about 3 to 4 weeks, the effect of the preparations is scored visually in comparison with untreated controls (scoring as in Example 1). […]

Festuca rubra = assay: Outdoor trial, post-emergence herbicidal action against Festuca rubra
Experimental: as §1, §2

Lolium multiflorum = assay: Outdoor trial, post-emergence herbicidal action against Lolium multiflorum; details: application at the 2-5-leaf stage (post-emergence), evaluation 55 days after treatment
Experimental: as §1
Seeds or rhizome pieces of monocotyledonous and dicotyledonous weeds are placed in sandy loam in pots, covered with soil and grown in the greenhouse under good growth conditions (temperature, atmospheric humidity, water supply). Three weeks after sowing, the test plants are treated in the three-leaf stage with the compositions according to the invention. The compositions according to the invention, formulated as wettable powders or emulsion concentrates, are sprayed onto the green plant parts in various dosages using an application rate of 300 to 800 l of water/ha (converted). After the test plants have remained in the greenhouse under optimum growth conditions for about 3 to 4 weeks, the effect of the preparations is scored visually in comparison with untreated controls (scoring as in Example 1). The compositions according to the invention also have good herbicidal post-emergence action against a broad spectrum of economically important weed grasses and broad-leaf weeds.
Corresponding to the greenhouse experiments of sections 1 and 2, the tests were carried out in the open on plots. Scoring was carried out analogously to the tests in sections 1 and 2.
Certain combinations were tested for their herbicidal activity in accordance to the general example in section 3 in combination with section 2 (post-emergence method).

[1] = 600 g of AS/ha, application at stage 21, evaluation 35 days after treatment
[2] = 200 g of AS/ha, application at stage 21 of the harmful plants, evaluation 35 days after treatment

CP(=O)(O)CCC(N)C(=O)O (racemic) [(B2.1.1.1), 4-[hydroxy(methyl)phosphinoyl]-DL-homoalanine, reference compound] was tested, and the “Herbicidal action [%] against Poa trivialis” value (Poa trivialis; [1]) was 88% and the “Herbicidal action [%] against Festuca rubra” value (Festuca rubra; [1]) was 87%.

In the case of Cc1ccc2c(c1)[C@H](Nc1nc(N)nc([C@@H](C)F)n1)CC2 [(A11), 2-amino-4-[(1R)-6-methylindan-1-ylamino]-6-[(1R)-1-fluoroethyl]-1,3,5-triazine], the “Herbicidal action [%] against Poa trivialis” value (Poa trivialis; [2]) is reported as 0%, the “Herbicidal action [%] against Festuca rubra” value (Festuca rubra; [2]) is reported as 0% and the “Herbicidal action [%] against Lolium multiflorum” value (Lolium multiflorum; 200 g of AS/ha) is reported as 20%. For the same molecule, the “Herbicidal action [%] against Lolium multiflorum” value (Lolium multiflorum; 300 g of AS/ha) was 50%.

O=C(O)CNCP(=O)(O)O [(B2.1.2.1), N-(phosphonomethyl)glycine, reference compound] was tested, and the “Herbicidal action [%] against Lolium multiflorum” value (Lolium multiflorum; 1080 g of AS/ha) was 18%.
